Data from PMC7889890, “Structure of photosystem I-LHCI-LHCII from the green alga Chlamydomonas reinhardtii in State 2” (Nature Communications, 2021).

Experiments:
PsaA = biological target: T1, PsaA (Chlamydomonas reinhardtii, UniProt P12154); assay type: binding; details: Bcr850; native supercomplex
T1 construct: PSI core subunit within native PSI-LHCI-LHCII supercomplex purified from state 2 thylakoids

PsaH = biological target: T2, PsaH (Chlamydomonas reinhardtii, UniProt P13352); assay type: binding; details: Bcr204; native supercomplex
T2 construct: mature PSI core subunit within native PSI-LHCI-LHCII supercomplex purified from state 2 thylakoids
T2 sequence (P13352 31-130): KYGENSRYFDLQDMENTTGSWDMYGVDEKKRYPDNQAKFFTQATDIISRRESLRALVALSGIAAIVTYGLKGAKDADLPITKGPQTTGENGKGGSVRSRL

PsaL = biological target: T3, PsaL (Chlamydomonas reinhardtii, UniProt A8IL32); assay type: binding; details: Bcr201, Bcr205, Bcr206; native supercomplex
T3 construct: gene CHLRE_12g486300v5; mature PSI core subunit within native PSI-LHCI-LHCII supercomplex purified from state 2 thylakoids
T3 sequence (A8IL32 36-196): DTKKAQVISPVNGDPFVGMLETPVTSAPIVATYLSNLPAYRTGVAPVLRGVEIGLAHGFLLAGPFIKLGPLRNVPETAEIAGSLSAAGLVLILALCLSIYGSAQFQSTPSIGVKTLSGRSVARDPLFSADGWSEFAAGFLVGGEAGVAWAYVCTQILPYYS

PsaD = biological target: T4, PsaD (Chlamydomonas reinhardtii (endogenous …, UniProt Q39615 36-196)); test: cryo-EM structure; single-particle cryo-EM of the PSI-LHCI-LHCII supercomplex purified from state 2 cells; 3.42 Å overall; 10 mM Hepes-KOH pH 7.5, 50 mM NaCl, 1 mM NaN3, 10 mM NaF, 0.01% α-DDM; details: both partners purified
T4 construct: PSI core subunit PsaD of C. reinhardtii; source: endogenous, C. reinhardtii CC-137 cells in state 2; thylakoid membranes solubilised with α-DDM, PSI-LHCI-LHCII purified (sucrose density gradient, gel filtration)
T4 sequence (looked up): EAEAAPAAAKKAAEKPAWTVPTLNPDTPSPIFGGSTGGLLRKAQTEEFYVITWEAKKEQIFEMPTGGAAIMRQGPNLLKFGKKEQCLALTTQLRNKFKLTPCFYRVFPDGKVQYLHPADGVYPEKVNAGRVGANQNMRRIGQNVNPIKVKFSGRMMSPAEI

T1 sequence (P12154 whole entry): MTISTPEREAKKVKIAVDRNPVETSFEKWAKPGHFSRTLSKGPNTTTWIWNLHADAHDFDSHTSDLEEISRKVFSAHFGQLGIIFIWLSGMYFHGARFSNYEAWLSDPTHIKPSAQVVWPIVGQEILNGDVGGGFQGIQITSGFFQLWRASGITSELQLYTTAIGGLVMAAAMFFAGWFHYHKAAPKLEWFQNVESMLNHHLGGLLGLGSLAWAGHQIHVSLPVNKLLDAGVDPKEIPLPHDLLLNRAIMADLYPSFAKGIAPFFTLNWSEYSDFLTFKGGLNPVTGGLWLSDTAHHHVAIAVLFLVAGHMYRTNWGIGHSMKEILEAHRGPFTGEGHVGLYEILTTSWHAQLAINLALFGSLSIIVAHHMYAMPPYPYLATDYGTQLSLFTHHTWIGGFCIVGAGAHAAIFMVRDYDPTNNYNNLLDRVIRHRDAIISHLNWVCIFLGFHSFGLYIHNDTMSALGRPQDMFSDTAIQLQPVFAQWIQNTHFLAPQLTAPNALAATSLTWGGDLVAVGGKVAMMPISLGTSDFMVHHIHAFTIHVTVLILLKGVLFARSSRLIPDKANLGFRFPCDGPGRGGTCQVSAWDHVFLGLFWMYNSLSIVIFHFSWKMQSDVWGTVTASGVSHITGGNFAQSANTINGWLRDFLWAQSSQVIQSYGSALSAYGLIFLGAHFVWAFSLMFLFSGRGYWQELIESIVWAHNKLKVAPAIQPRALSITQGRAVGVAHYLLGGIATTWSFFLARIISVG

Row | binding result (PsaD) | Molecule | cryo-EM structure, 3.42 Å (PsaA) | cryo-EM structure, 3.42 Å (PsaH) | cryo-EM structure, 3.42 Å (PsaL)
1 | – | CC1=C(/C=C/C(C)=C/C=C/C(C)=C/C=C/C=C(C)/C=C/C=C(C)/C=C/C2=C(C)CCCC2(C)C)C(C)(C)CCC1 [BCR] | Bcr850 of PsaA interacts with helix A of PsaO | one BCR (Bcr204) were found to bind to PsaH in the present structure | three BCRs (Bcr201, Bcr205 and Bcr206) were observed in the green algal PsaL
2 | binds | PsaH (natural protein, UniProt P13352 31-130, looked up, PSI core subunit PsaH of C. reinhardtii; also called Cr-PsaH; source: endogenous, C. reinhardtii CC-137 cells in state 2; thylakoid membranes solubilised with α-DDM, PSI-LHCI-LHCII purified (sucrose density gradient, gel filtration)) KYGENSRYFDLQDMENTTGSWDMYGVDEKKRYPDNQAKFFTQATDIISRRESLRALVALSGIAAIVTYGLKGAKDADLPITKGPQTTGENGKGGSVRSRL | – | – | –
